Measurements reported in paper PMC7464159, “Triple Negative Breast Cancer and Breast Epithelial Cells Differentially Reprogram Glucose and Lipid Metabolism upon Treatment with Triterpenic Acids” (Biomolecules, 2020).

Experiments:
[1] = tested on: MCF-10A cells; test: 1H NMR analysis of culture medium supernatants (exometabolome); format: cell-based, human
Procedure: (§1) MDA-MB-231 and MCF-10A cells were seeded in 10-cm-diameter Petri dishes at a density of 6 × 10^5 cells/mL (10 mL per dish) and cultured for 24 h at 37 °C. Cells were then incubated for 48 h with BA (5 and 15 µM) or UA (10 and 20 µM). Vehicle solvent control cells received DMSO (0.10% v/v). Samples were collected immediately after 48 h incubation or, to assess cellular recovery, medium was replaced with fresh growth medium (without TAs), and cells were incubated for additional 24 h before collection (48 + 24 h samples). Four independent assays were performed.
(§2) After incubation, culture medium was collected and centrifuged (1000× g, 5 min) and the supernatant stored at −80 °C until analysis. Culture medium without cells was placed under the same conditions and collected. Cell extraction was performed as described by Carrola et al.. Briefly, cells were washed four times with PBS and extracted with a mixture of methanol:chloroform:water (1:1:0.7). The resulting polar and organic phases were collected and then dried under vacuum or under a stream of nitrogen gas, respectively. All samples were stored at −80 °C and, at the time of analysis, dried polar extracts were reconstituted in 600 µL of deuterated phosphate buffer (100 mM, pH 7.4) containing 0.1 mM TSP-d4, while organic extracts were reconstituted in deuterated chloroform containing 0.03% TMS. Regarding medium samples, 540 μL were mixed with 60 μL of D2O containing 0.25% TSP-d4. Prior to analysis, 550 μL of each sample were transferred to 5 mm NMR tubes.
(§3) ^1H NMR spectra of all samples were acquired on a Bruker Avance III HD 500 NMR spectrometer (University of Aveiro, Portuguese NMR Network) operating at 500.13 MHz for ^1H observation equipped with a 5 mm TXI probe. Standard 1D spectra (Bruker pulse programs ‘noesypr1d’, with water suppression, for medium samples and aqueous extracts, and ‘zg’ for organic extracts) were recorded with a 7002.8 Hz spectral width, 32 k data points, a 2 s relaxation delay and 512 scans. Spectral processing comprised exponential multiplication with 0.3 Hz line broadening, zero filling to 64 k data points, manual phasing, baseline correction, and chemical shift calibration to the TSP or TMS signal at 0 ppm. 2D ^1H-^1H total correlation (TOCSY) spectra, ^1H-^13C heteronuclear single quantum correlation (HSQC) spectra and J-resolved spectra were also registered for selected samples to assist spectral assignment. Metabolites were identified with the support of 2D spectra and the spectral reference databases BBIOREFCODE-2-0-0 (Bruker Biospin, Rheinstetten, Germany) and HMDB [28]. Selected signals were then integrated using the AmixViewer software […] (version 3.9.14, Bruker BioSpin, Rheinstetten, Germany) and normalized by the total spectral area. The magnitude of each metabolite change was assessed through the percentage of variation (and its respective error) in exposed samples relatively to controls, and through the effect size (ES) adjusted for small sample numbers (and respective standard error). Metabolite variations with absolute ES greater than 0.8 were expressed in a heatmap, colored as a function of the percentage of variation, employing the R statistical software.

[2] = tested on: MDA-MB-231 cells; test: as above; format: cell-based, human
Procedure: as §1, §2, §3

C=C(C)[C@@H]1CC[C@]2(C(=O)O)CC[C@]3(C)[C@H](CC[C@@H]4[C@@]5(C)CC[C@H](O)C(C)(C)[C@@H]5CC[C@]43C)[C@@H]12 [BA, betulinic acid]
consumption of glucose and pyruvate ([1]; 48 h): consumed more | excretion of lactate ([1]; 48 h): excreting more | consumption of glucose, pyruvate and acetate ([1]; BA, 48 + 24 h): decreased | formate excretion ([1]; BA, 48 + 24 h): increased | consumption of several amino acids (BCAA, glutamine, phenylalanine, tyrosine) ([1]; BA, 48 h): significantly reduced | excretion of alanine and fumarate ([1]; BA, 48 h): decreased excretion | consumption of leucine ([2]; BA 5µM, 48h): decreased significantly | glucose consumption ([2]; BA 15µM, 48h): significant increases | lactate excretion ([2]; BA 15 µM, 48 h (already noticed at 5 µM)): significant increases | consumption of leucine and pyruvate ([2]; BA, 48 + 24 h): consumed less | excretion of 2-oxoisovalerate, citrate and alanine ([2]; BA, 48 + 24 h): excreted less | glucose consumption and lactate excretion vs untreated controls ([2]; BA, 48 + 24 h): no longer differences

C[C@H]1[C@H](C)CC[C@]2(C(=O)O)CC[C@]3(C)C(=CC[C@@H]4[C@@]5(C)CC[C@H](O)C(C)(C)[C@@H]5CC[C@]43C)[C@H]12 [UA, ursolic acid]
consumption of glucose and pyruvate ([1]; 48 h): increasing the consumption | excretion of lactate ([1]; 48 h): increasing | consumption of several amino acids ([1]; UA, 48 h): decreased | consumption of glucose, leucine and choline ([2]; UA, 48 + 24 h): decreased consumption | excretion of lactate, 2-oxoisovalerate, citrate, alanine and glutamate ([2]; UA, 48 + 24 h): decreased excretion | changes in the exometabolome ([2]; UA, 48 h): no significant changes
